# Test results taken from US20070203112A1, “BLADDER CANCER TREATMENT AND METHODS” (priority 2006, published 2007).
# Test system: DLD-1 multicell layers
# Assay: Penetration of EO9 through DLD-1 multicell layers (transwell apparatus, HPLC)
# Assay type: in vitro ADME, human
# Procedure: The cell line used in this study was DLD-1 human colon adenocarcinoma cells which was selected because of its ability to form tight junctions between cells thereby forming a continuous ‘barrier’ across which the drug must cross. To assess drug penetration, drugs were added to the top chamber and the concentration of drug in the bottom chamber was determined over a range of time intervals.
# DLD-1 cells (2.5×10^5 in 200 μl of medium) were added to the top chamber and allowed to settle and attach to the membrane for approximately 3 hours at 37° C. in a CO2 enriched (5%) atmosphere. Once cells attached, the transwell was inserted into one well of a 24 well plate and 600 μl media was added to the bottom chamber. The apparatus was then incubated at 37° C. for 4 days with daily media changes to both the upper and lower chamber. […] For each assay, 3 transwells were removed for histological examination and accurate determination of thickness and integrity (see below for details).
# Throughout all procedures, the media used was as described above except for the fact that phenol red free media was used (phenol red elutes very close to EO9 on the chromatograms). EO9 was added to the top chamber at t=0 in a volume of 100 μl and the bottom chamber contained 600 μl of media (constantly stirred). […]
smiles,measurement,setting,value
"Cn1c(/C=C/CO)c(CO)c2c1C(=O)C=C(N1CC1)C2=O [EO9, 3-hydroxymethyl-5-aziridinyl-1-methyl-2-(1H-indole-4,7-dione)-propenol]",multicell layer penetration rate of EO9,"as the concentration of PG increases, 347 μM in top chamber, 10 minute intervals over 1 hour",decreases
same,metabolites or breakdown products observed,at any of the evaluated time points of the penetration experiment,No obvious metabolites or breakdown products were observed
